What was measured:
UMUC3 cells = assay: Cell cycle analysis (flow cytometry) of UMUC3 cells; assay type: cell-based, human; conditions: UMUC3, 48 hours; Roscovitine 10 μM, CI-1040 1 μM, Nutlin-3a 10 μM, LEE011 10 μM; 10 MOI dl703
Protocol: FIG. 10 is a bar diagram showing cell cycle distribution in UMUC3 cells, measured 48 hours post treatment, whereby the concentrations of the […] inhibitors was as follows: Roscovitine: 10 μM, CI-1040: 1 μM, Nutlin-3a: 10 μM, and LEE011: 10 μM.
For cell cycle analysis cells were seeded in 6 well plates (2.5×10E4 c/well). 8 hours before infection with dl703, cells were treated with indicated concentration of cell cycle inhibitors. After infection with 10 MOI dl703 cells were again treated for 48 hours. Untreated cells and dl703 infected cells only, served as control. 48h post infection cells were harvest by trypsinization and fixed with 80% ethanol while vortexing. To investigate the cell cycle status, fixed cells were centrifuged 5 min at RT and 300 g and ethanol was aspirated. Cells were resuspended and washed with 1% BSA-PBS (Bovine Serum Albumin) and again centrifuged. Cells were stained with EDU and cell cycle analysis were performed using the Click-iT™ Plus EdU Flow Cytometry Assay Kits, Catalog nos. C10632 from Thermo Fischer. In addition, after 3× times washing with 1% BSA/PBS cells were stained with PI (Propidium Iodine, 50 μg/ml). Measurement was directly performed after staining with a FACScalibur Flow Cytometry System. Data was analyzed with FlowJo software.

[1] = system: U87 cells, LN229 cells or T98G cells; assay: SRB cell survival in glioblastoma cells, XVir-N-31, JQ1 and LEE011; assay type: cell-based; conditions: all three glioblastoma cell lines
Protocol: 2×10^4 cells (U87 cells, LN229 cells or T98G cells) were seeded in 12 well plates in DMEM medium and inhibitor treated at the next day. 48 hours post seeding the cells were infected with XVir-N-31. After 4 days the cells were fixated using 10% TCA. The plates were stained using a 0.1% SRB solution. The surplus was removed and the plates were washed with 1% acetic acid. After removing the acetic acid, the plates were air dried overnight. The SRB was solved in 1 ml of a 10 mM Tris Base solution and a 1:10 dilution was measured using a photometer at 560 nm.

dl703 = assay: E1A-independent viral DNA replication of dl703 (fiber qPCR); assay type: cell-based, Mastadenovirus, Type C, Serotype 5; conditions: UMUC cells, 10 μM Lee, 50 MOI dl703, 48 hours post infection
Protocol: To investigate the differences in replication of dl703 (Mantwill et al. 2013, Journal of Translational Medicine, 11, 216) under different treatment conditions, DNA-replication analysis was performed. 100,000 UMUC cells were seeded in 6-well plates and grown in DMEM medium containing 10% FCS in 5% CO2 conditions at 37° C. 24 hours post seeding cells were treated for 24 hours with 10 μM Lee (Ribociclib), 1 μM CI-1040, 10 μM Nutlin-3a and 10 μM Roscovertine and again after infection adding an appropriate amount of inhibitors to the medium. Infection with 50 MOI dl703 (Mastadenovirus, Type C, Serotype 5 with a 3.2 kb sized deletion in E1 region) took place 24 hours post treatment. After 4 and 48 hours post infection DNA were isolated and qPCR was performed using specific primers for the viral fiber gene. Fiber fwd. 5′-[…]-3′ (SEQ ID NO: 17); Fiber rev. 5′-[…]-3′ (SEQ ID NO: 18).

Rb, phRB and E2F1 = assay: Western blot of UMUC cells treated with cell cycle inhibitors; assay type: cell-based, human; conditions: 24 hours post-treatment, LEE-011 at 10 μM, MI-1040 at 1 μM
Protocol: Western Blot analysis of UMUC cells treated with indicated concentrations of CI-1040, Roscovitine, Nutlin-3a and LEE011 (Ribociclib). 1×10^6 cells were seeded in 10 cm dishes. 24 hours post-treatment proteins were isolated using 1% SDS buffer, to achieve the disruption of the nuclear membrane. All samples were drawn up several times into a syringe to disrupt the DNA and subsequently centrifuged at 30000 rpm at 4° C. for 30 minutes. The supernatant was transferred to a new reaction tube and directly used for further steps or stored at −80° C. To separate the proteins a sodium dodecyl sulfate polyacrylamide gel electrophoresis was performed. By means of electrophoresis for approximately two hours at 100V at 4° C., 40 μg of total proteins were loaded and probed against specific indicated antibodies.

LN229 cells = assay: Western blot of XVir-N-31 infected LN229 cells, LEE011 and JQ1; assay type: cell-based
Protocol: 2.5×10^5 LN229 cells were seeded in 10 cm plates in DMEM medium. The following day the cells were treated with 500 nM LEE011 and 200 nM JQ1 or a combination of both. At the next morning the cells were infected with XVir-N-31 at 20 MOI. One hour after infection DMEM Medium containing the inhibitors was added on the cells. After each time point (24, 48, 72 hours) the cells were put on ice, washed twice with ice-cold PBS and 300 μl of SDS Protein Lysis Buffer was added. The cells were transferred to reaction tubes and the DNA sheared with a syringe and a needle and the supernatant transferred for further use after centrifugation. The protein concentration was measured with a BCA assay and samples with 4× Lämmli:DTT 6:1 and a concertation of 20 μg were produced and transferred to a 10% SDS gel. The gel electrophoresis started at 90V and was increased to 150V after the ladder started to separate. The proteins on the gel were blotted to a membrane for 2 hours at 100V and blocked in 5% milk in TBS-T for 1 hour at RT. After washing in TBS-T, the first antibody was added according to the manufacturer's information over night at 4° C. The used antibodies were directed to GAPDH, E1A, DBP, E2F1, Rb, pRb for all time points, and caspase 3 and the full length and cleaved version of PARP additionally for the 72 hours samples. The next day, the washing was repeated and the secondary antibody added for 1 hour at RT. Following the washing, ECL was used to image the chemiluminescence by the ChemiDoc™ MP Imaging System.

[2] = LN229, with XVir-N-31, 48 hours post infection
[3] = LN229, with XVir-N-31, 72 hours post infection

SMILES: CN(C)C(=O)c1cc2cnc(Nc3ccc(N4CCNCC4)cn3)nc2n1C1CCCC1 [LEE011]
- cell cycle distribution (UMUC3 cells): clear G1-arrest
- cell killing on addition of LEE011 to JQ1 and XVir-N-31 [1]: increased even further
- increase of viral DNA replication of dl703 (dl703): ~100 fold
- Rb, phRB and E2F1 expression (Rb, phRB and E2F1): induced inhibition
- viral proteins E1A and DBP (LN229 cells; LN229, XVir-N-31 MOI 20, 500 nM LEE011 or/and 200 nM JQ-1, 24 hours post infection): increased
- viral proteins E1A and DBP (LN229 cells; LN229, XVir-N-31 MOI 20, 500 nM LEE011 or/and 200 nM JQ-1, 48 hours post infection): increased
- viral proteins E1A and DBP (LN229 cells; LN229, XVir-N-31 MOI 20, 500 nM LEE011 or/and 200 nM JQ-1, 72 hours post infection): increased
- cellular proteins Rb and pRb (LN229 cells; LN229, with XVir-N-31, 24 hours post infection): remained inhibited
- E2F-1 (LN229 cells; [2]): stabilized
- cellular proteins Rb and pRb (LN229 cells; [2]): remained inhibited
- E2F1 (LN229 cells; [3]): enhanced
- cellular protein Rb (LN229 cells; [3]): decreased
- presence of cleaved PARP (LN229 cells; XVir-N-31 infected LN229 cells, 72 hours post infection): increased

From patent publication US20220354911A1, “TREATMENT OF TUMORS BY A COMBINATION OF AN ONCOLYTIC ADENOVIRUS, A CDK4/6 INHIBITOR AND A FURTHER THERAPEUTICALLY ACTIVE AGENT” (KLINIKUM RECHTS DER ISAR DER TECHNISCHEN UNIVERSITÄT MÜNCHEN, priority 2019, published 2022)
